Laboratory results taken from patent US20250235545A1, “POLYPEPTIDE CONJUGATE AND USE THEREOF” (SHANGHAI CHIXI BIOMEDICAL TECHNOLOGY CO., LTD, priority 2024, published 2025).
≈ marks a conversion by molar mass, not a printed value. Where two headings read alike, the source gives them in different places.

Assays:
[1] = tested on: colo320 colorectal cancer tumor model
Protocol: Test objective: To investigate the antitumor efficacy of the above compounds in an animal tumor model of colo320 colorectal cancer.
(§1) Test drug: Polypeptide conjugate, Irinotecan, Belotecan and normal saline control group.
(§2) Test animals: 6-8 weeks old BALB/c mice, all female.
(§3) Passaging was performed every three days, and cells within 15 generations were used. 7.5×10^6 corresponding cells were injected into right chests of nude mice subcutaneously. After a volume of the tumors reached at least 120 mm^3, the mice were grouped randomly, with three mice in each group. Then treatment was started, and the day when the treatment was started was the first day. […] The control group was administered with normal saline. Administration was performed once a week for four weeks.

[2] = tested on: colo320 (colorectal cancer tissue); test: cells; type: cell-based; settings: CCK8, 48 h, Table 6
Protocol: (§4) Different types of cells were cultured with complete media (RPMI1640 (DMEM high sugar medium)+10% fetal bovine serum+1×P/S+sodium pyruvate 1 mM solution) in an incubator at 37° C. and 5% CO2 until the cells grew to a sufficient number, and the cells were collected, centrifuged at 1,000 g for 5 min, resuspended with an appropriate volume of a 10% RMPI1640 (DMEM high sugar medium) medium and adjusted to an appropriate density. In a 96-well culture plate, 100 μL of cell culture fluid containing different concentrations of drugs was added, control wells (0.1% DMSO) with only corresponding drug solvents without drugs, as well as blank wells (Blank) with only the medium but without cells were set, and three parallel wells were set in each group. After that, the cells after cell counting were inoculated onto 96-well culture plates, with 100 μL of cell suspension per well, and an inoculation concentration of the cells was 5,000 cells (100 μL)/well. The plates were then cultured in a CO2 (5%) incubator at 37° C. for 48 h. After 48 h, 10 μL of a cell proliferation staining reagent (CCK8) was added to each well, the plates were incubated in a cell incubator for around 2 h, and an absorbance at 450 nm was detected.
(§5) Cell survival rates and median inhibitory concentrations (IC50) of the drugs on the cells were calculated.

[3] = tested on: SKBR3 (breast cancer tissue); test: cells; type: cell-based; settings: CCK8, 48 h; for IC50: Homo sapiens, SK-BR-3
Protocol: as §4, with “serum+1XP/S+sodium” for “serum+1×P/S+sodium”, “counted.” for “adjusted to an appropriate density.”
(§6) Cell survival rates and median inhibitory concentrations of the drugs on the cells were calculated.
as §4, §5

A2780 (ovarian cancer) = test: cells; type: cell-based; settings: CCK8, 48 h; for IC50: Homo sapiens, A2780
Protocol: as §4, with “serum+1XP/S+sodium” for “serum+1×P/S+sodium”, “counted.” for “adjusted to an appropriate density.”
as §6, §4, §5

SJSA-1 (sarcoma tissue) = test: cells; type: cell-based; settings: CCK8, 48 h; for IC50: Homo sapiens, SJSA-1
Protocol: as §4, with “serum+1XP/S+sodium” for “serum+1×P/S+sodium”, “counted.” for “adjusted to an appropriate density.”
as §6, §4, §5

[4] = tested on: A549 (non-small cell lung cancer); test: cells; type: cell-based; settings: CCK8, 48 h; for IC50: Homo sapiens, A549
Protocol: as §4, with “serum+1XP/S+sodium” for “serum+1×P/S+sodium”, “counted.” for “adjusted to an appropriate density.”
as §6, §4, §5

[5] = MTD determination in mice (Examples 27, 36, 44); type: in vivo; settings: mice, monitored for 14 d
Text: Test animals: 6-8 weeks old mice, all female; mice were grouped randomly, with six mice in each group, administered with drugs at different concentration gradients separately and monitored for 14 d. A mouse was euthanized at a loss of 20% of its initial weight and deemed to have died of poisoning.

[6] = tested on: sarcoma SJSA-1 tumor model; settings: 5 mg/kg once a week for three weeks
Protocol: Test objective: To investigate the antitumor efficacy of the above compounds in an animal tumor model of sarcoma SJSA-1.
as §1, §2
as §3, with “SJSA-1 cells were purchased from ATCC and cultured in a DMEM medium containing 10% fetal bovine serum at 37° C. in 5% CO2. Passaging” for “Passaging”, “2×10^7” for “7.5×10^6”, “100” for “120”, “three” for “four”
as §3, with “SJSA-1 cells were purchased from ATCC and cultured in a DMEM medium containing 10% fetal bovine serum at 37° C. in 5% CO2. Passaging” for “Passaging”, “2×10^7” for “7.5×10^6”, “100” for “120”, “three” for “four”

[7] = 5 mg/kg once a week for four weeks, Table 3
[8] = 5 mg/kg once a week for four weeks, Table 8
[9] = Table 13 (Example 42), dose 5 mg/kg, once a week for four weeks, BALB/c mice
[10] = Table 14 (Example 43), dose 5 mg/kg, once a week for four weeks, BALB/c mice

| Structure (SMILES) | Mouse weight (%) [1, 7] [%] | colo320 (colorectal cancer cell) growth rate (%) [1, 7] [%] | colo320 (colorectal cancer cell) mean tumor volume (mm^3) [1, 7] [mm^3] | Mouse weight (%) [1, 8] [%] | colo320 (colorectal cancer cell) growth rate (%) [1, 8] [%] | colo320 (colorectal cancer cell) mean tumor volume (mm^3) [1, 8] [mm^3] | Mouse weight (%) [1, 9] [%] | colo320 (colorectal cancer cell) growth rate (%) [1, 9] [%] | colo320 (colorectal cancer cell) mean tumor volume (mm^3) [1, 9] [mm^3] | Mouse weight (%) ([6]; Table 2) | SJSA-1 (sarcoma tissue) mean tumor volume (mm^3) ([6]; Table 2) | SJSA-1 (sarcoma) Growth rate (%) ([6]; Table 2) | Mouse weight (%) ([6]; Table 7) | SJSA-1 (sarcoma tissue) growth rate (%) ([6]; Table 7) | SJSA-1 (sarcoma tissue) mean tumor volume (mm^3) ([6]; Table 7) | also measured |
| --- | --- | --- | --- | --- | --- | --- | --- | --- | --- | --- | --- | --- | --- | --- | --- | --- |
| CC[C@@]1(O)C(=O)OCc2c1cc1n(c2=O)Cc2c-1nc1ccccc1c2CCNC(C)C [Belotecan, reference compound] | −9 | 869.93 | 963.5 | −9 | 869.93 | 963.5 | −9 | 869.93 | 963.5 | −9 | 1253.2 | 1084.38 | −9 | 1084.38 | 1253.2 | Mouse weight (%) [1, 10]: −9%; colo320 (colorectal cancer cell) growth rate (%) [1, 10]: 869.93%; colo320 (colorectal cancer cell) mean tumor volume (mm^3) [1, 10]: 963.5 mm^3; IC50 ([2]; Homo sapiens, COLO 320): 14 ng/mL (≈ 0.0323 µM); IC50 ([3]; Table 1, read-out: IC50 SKBR3 (breast cancer tissue)): 9.8 ng/mL (≈ 0.0226 µM); IC50 ([3]; Table 6, read-out: IC50 Breast cancer tissue (SKBR3)): 9.8 ng/mL (≈ 0.0226 µM); IC50 (A2780 (ovarian cancer); Table 1, read-out: IC50 A2780 (ovarian cancer)): 4.4 ng/mL (≈ 0.0101 µM); IC50 (A2780 (ovarian cancer); Table 6, read-out: IC50 Ovarian cancer tissue (A2780)): 4.4 ng/mL (≈ 0.0101 µM); IC50 (SJSA-1 (sarcoma tissue); Table 1, read-out: IC50 SJSA-1 (sarcoma tissue)): 2.1 ng/mL (≈ 0.00484 µM); IC50 (SJSA-1 (sarcoma tissue); Table 6, read-out: IC50 Sarcoma tissue (SJSA-1)): 2.1 ng/mL (≈ 0.00484 µM); IC50 ([4]; Table 1, read-out: IC50 A549 (non-small cell lung cancer)): 6.6 ng/mL (≈ 0.0152 µM); IC50 ([4]; Table 6, read-out: IC50 Non-small cell lung cancer tissue (A549)): 6.6 ng/mL (≈ 0.0152 µM); MTD ([5]; female, mouse, in vivo, Table 15 (Example 44), six per group, read-out: MTD): 15 mg/kg; MTD ([5]; female, mouse, in vivo, Table 4, read-out: MTD): 15 mg/kg; MTD ([5]; female, mouse, in vivo, Table 9, read-out: MTD): 15 mg/kg |
| CC[C@@]1(O)C(=O)OCc2c1cc1n(c2=O)Cc2c-1nc1ccccc1c2CCNC [D1] | −7 | 1012.22 | 1121.1 | −7 | 1012.22 | 1121.1 | −7 | 1012.22 | 1121.1 | −6 | 1432 | 1235.57 | −6 | 1235.57 | 1432 | IC50 Colorectal cancer tissue (colo320) [2]: 40 ng/mL (≈ 0.0987 µM); IC50 SKBR3 (breast cancer tissue) ([3]; Table 1): 50 ng/mL (≈ 0.123 µM); IC50 Breast cancer tissue (SKBR3) ([3]; Table 6): 50 ng/mL (≈ 0.123 µM); IC50 A2780 (ovarian cancer) (A2780 (ovarian cancer); Table 1): 18 ng/mL (≈ 0.0444 µM); IC50 Ovarian cancer tissue (A2780) (A2780 (ovarian cancer); Table 6): 18 ng/mL (≈ 0.0444 µM); IC50 SJSA-1 (sarcoma tissue) (SJSA-1 (sarcoma tissue); Table 1): 28 ng/mL (≈ 0.0691 µM); IC50 Sarcoma tissue (SJSA-1) (SJSA-1 (sarcoma tissue); Table 6): 28 ng/mL (≈ 0.0691 µM); IC50 A549 (non-small cell lung cancer) ([4]; Table 1): 27 ng/mL (≈ 0.0666 µM); IC50 Non-small cell lung cancer tissue (A549) ([4]; Table 6): 27 ng/mL (≈ 0.0666 µM); MTD ([5]; Table 4): 25 mg/kg; MTD ([5]; Table 9): 25 mg/kg |
